Paper PMC7562955 (Nature Communications, 2020)
“And” between values parts separate entries of the source, which are not always exact repeats. Equal values may be shown once.

Key:
TLR7 = experiment: Glutaraldehyde crosslinking assay of ligand-induced TLR7 dimerization; assay type: biochemical, Monkey (Macaca mulatta); conditions: for ligand-induced TLR7 dimerization: neutral or acidic pH
Method: (§1) The recombinant TLR7 proteins expressed in Drosophila S2 cells (Thermo Fisher Scientific) using Monkey (Macaca mulatta) TLR7 extracellular domain expression construct with N167Q, N399Q, N488Q and N799Q mutations and cleavable Z-loop and C-terminal protein A tag were prepared and were stored in a buffer containing 10 mM Tris-HCl pH 7.5 and 150 mM NaCl at concentrations of 10–15 mg ml^−1. Briefly, the purification steps included IgG affinity purification, the Z-loop and the protein A tag cleavage, and gel-filtration chromatography. Glycan-trimmed TLR7 proteins, expressed in the presence of 1.5 mg l^−1 kifunensine (Glycosyn) and treated by Endo Hf (New England Biolabs) were used for crystallization. Glycan-untrimmed proteins were used in ITC analysis, crosslinking assay, negative-staining EM and cryo-EM (200 kV microscopes) analyses. Glycan-trimmed TLR7 proteins with partially-uncleaved protein A tag were used for cryo-EM analysis using Tatan Krios (Supplementary Fig. 11).
For glutaraldehyde crosslinking assay (Fig. 2b), proteins were buffer exchanged into a buffer containing 10 mM HEPES-NaOH, pH 8.0, 150 mM NaCl and were concentrated to ~13 mg/ml using Amicon Ultra devices (Merck). Protein concentrations were adjusted to 25 µM using buffers containing 10 mM HEPES-NaOH, pH 7.0, 150 mM NaCl (for neutral condition) or 50 mM citrate-NaOH pH 5.0, 150 mM NaCl (for acidic condition). Cpd-3, Cpd-6 or Cpd-7 were added to final concentrations of 100 or 1000 µM. The reactions were started by adding glutaraldehyde (Wako) to a final concentration of 5 mM (for neutral condition) or 20 mM (for acidic condition), incubated at ambient temperature for 25 min and quenched by adding Tris-HCl pH 7.5 to a final concentration of 100 mM. Crosslinked samples were analyzed by non-reducing SDS-PAGE. Quantitative analysis of the SDS-PAGE gel image was performed with Image-J.

TLR1/2 = target: T1, TLR1/2 (Homo sapiens, UniProt O60603+Q15399); experiment: TNF-α production by human PBMC stimulated by TLR1/2 ligand Pam3CSK4 (ELISA); assay type: cell-based; conditions: for TLR2-dependent TNF-α production: 2.5 μM; for Mean TNF-α / TNF-α: activator PAM3CSK4, antagonist 2.5 μM; for Mean TNF-α: n = 3; for TNF-α: single replicate
T1 construct: Human Peripheral Blood Mononuclear cells (hPBMCs) were collected from healthy adult donors; endogenous in cells; host or cells: primary human PBMCs
T1 sequence (Q15399 25-786): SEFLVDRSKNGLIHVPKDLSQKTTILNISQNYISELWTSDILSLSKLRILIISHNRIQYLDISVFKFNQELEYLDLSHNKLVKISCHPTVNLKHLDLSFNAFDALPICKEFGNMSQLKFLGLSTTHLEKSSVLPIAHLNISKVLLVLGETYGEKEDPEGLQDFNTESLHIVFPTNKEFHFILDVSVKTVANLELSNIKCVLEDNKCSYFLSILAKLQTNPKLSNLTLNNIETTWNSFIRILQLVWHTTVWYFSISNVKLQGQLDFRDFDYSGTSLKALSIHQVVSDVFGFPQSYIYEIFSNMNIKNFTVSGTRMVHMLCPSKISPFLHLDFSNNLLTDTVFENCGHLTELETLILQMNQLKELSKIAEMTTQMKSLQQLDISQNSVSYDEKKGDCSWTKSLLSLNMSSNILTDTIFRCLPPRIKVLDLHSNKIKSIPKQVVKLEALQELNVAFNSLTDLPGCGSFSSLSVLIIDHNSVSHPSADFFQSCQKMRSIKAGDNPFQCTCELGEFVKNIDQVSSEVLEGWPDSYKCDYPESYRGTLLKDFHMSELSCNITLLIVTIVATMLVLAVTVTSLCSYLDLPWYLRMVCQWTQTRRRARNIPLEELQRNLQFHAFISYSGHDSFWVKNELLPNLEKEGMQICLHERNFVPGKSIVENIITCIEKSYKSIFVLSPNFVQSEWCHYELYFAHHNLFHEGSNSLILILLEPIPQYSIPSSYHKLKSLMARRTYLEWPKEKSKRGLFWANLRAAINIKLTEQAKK
T1 sequence (O60603 19-784 limits assumed): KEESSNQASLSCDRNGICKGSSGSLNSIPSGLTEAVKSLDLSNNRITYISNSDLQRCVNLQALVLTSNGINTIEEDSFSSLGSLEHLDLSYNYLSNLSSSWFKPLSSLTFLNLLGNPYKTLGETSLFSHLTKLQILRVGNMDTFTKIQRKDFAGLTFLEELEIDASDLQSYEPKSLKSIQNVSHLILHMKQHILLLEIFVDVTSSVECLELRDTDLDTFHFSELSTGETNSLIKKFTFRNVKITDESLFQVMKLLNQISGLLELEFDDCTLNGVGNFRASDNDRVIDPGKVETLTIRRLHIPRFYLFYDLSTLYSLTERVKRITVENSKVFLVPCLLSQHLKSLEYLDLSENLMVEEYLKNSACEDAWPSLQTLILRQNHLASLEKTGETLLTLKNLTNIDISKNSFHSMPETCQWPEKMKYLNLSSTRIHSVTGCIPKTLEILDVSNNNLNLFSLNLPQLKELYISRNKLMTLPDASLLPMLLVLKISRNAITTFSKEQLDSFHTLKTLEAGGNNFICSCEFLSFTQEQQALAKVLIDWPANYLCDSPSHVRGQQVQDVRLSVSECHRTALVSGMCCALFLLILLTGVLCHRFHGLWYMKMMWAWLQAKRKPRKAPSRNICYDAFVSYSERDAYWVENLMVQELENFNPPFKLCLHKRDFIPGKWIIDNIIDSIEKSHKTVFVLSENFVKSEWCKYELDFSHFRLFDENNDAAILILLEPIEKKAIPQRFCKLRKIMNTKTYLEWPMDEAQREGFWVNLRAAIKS
Method: Human Peripheral Blood Mononuclear cells (hPBMCs) were collected from healthy adult donors. hPBMCs were cultured in round-bottom 96-well plates (BD Falcon, Durham, NC, USA) with a density of 5 × 10^5 cells/well. Plated cells were pretreated with DMSO or 2.5 μM inhibitors for 3 h and then stimulated by indicated ligands, such as R848 or TLR1/2 specific ligand Pam3CSK4 (Invivogen, HongKong, China), for 20 h in […] of RPMI 1640 medium (Gibco, Paisley, UK) supplemented with 10% FBS, Penicillin-Streptomycin-Glutamine (Gibco, Paisley, UK), 50 μM 2-ME medium at 37 °C in the presence of 5% CO2. Supernatants were collected to measure secreted cytokines by ELISA. Concentration of human IFN-α and TNF-α in the supernatants was measured with Verikine Human IFN-α Multi-Subtype Serum ELISA Kit (PBL Assay Science, Piscataway, NJ, USA) and Human TNF-α Uncoated ELISA (ThermoFisher Scientific, Carlsbad, CA, USA), respectively. This study was approved by the Research Ethics Committee of IMSUT (accession number: 30-100-B20190419).

[1] = target: T2, TLR7 extracellular domain (Macaca mulatta, UniProt B3Y653, N167Q/N389Q/N488Q/N799Q); experiment: ITC titration to TLR7 recombinant protein; assay type: binding, Monkey (Macaca mulatta); conditions: pH 4.7; read-out: Dissociation constant KD
T2 construct: Monkey (Macaca mulatta) TLR7 extracellular domain expression construct; protein A tag (C, cleaved yes); made in house; host or cells: Drosophila S2 cells
T2 sequence (B3Y653 with tags, fused parts or gaps N167Q/N389Q): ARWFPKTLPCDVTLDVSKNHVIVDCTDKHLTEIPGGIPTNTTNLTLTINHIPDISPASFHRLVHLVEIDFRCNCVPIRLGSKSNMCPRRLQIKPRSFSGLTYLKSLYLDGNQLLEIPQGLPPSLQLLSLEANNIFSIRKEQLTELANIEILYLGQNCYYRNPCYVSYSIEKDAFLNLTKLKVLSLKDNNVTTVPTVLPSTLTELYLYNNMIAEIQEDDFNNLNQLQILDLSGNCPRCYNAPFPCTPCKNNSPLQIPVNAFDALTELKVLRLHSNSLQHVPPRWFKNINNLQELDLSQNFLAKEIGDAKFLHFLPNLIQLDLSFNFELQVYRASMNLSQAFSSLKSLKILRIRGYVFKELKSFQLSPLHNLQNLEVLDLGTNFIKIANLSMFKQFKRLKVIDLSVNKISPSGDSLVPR
T2 sequence (B3Y653 with tags, fused parts or gaps N488Q/N799Q): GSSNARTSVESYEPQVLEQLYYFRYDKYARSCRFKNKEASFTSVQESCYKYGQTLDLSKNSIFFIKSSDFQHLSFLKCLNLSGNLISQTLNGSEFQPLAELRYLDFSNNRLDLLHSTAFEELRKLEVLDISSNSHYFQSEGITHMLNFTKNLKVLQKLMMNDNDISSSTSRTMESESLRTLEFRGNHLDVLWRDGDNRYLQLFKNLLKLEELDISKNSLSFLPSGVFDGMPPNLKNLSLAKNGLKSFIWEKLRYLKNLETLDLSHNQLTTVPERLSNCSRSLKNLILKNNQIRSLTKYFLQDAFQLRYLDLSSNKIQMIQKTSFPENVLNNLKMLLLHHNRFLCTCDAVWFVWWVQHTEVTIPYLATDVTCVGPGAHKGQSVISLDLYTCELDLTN
Method: as §1
ITC experiments (Fig. 2a) were conducted at 298 K in a final buffer condition of ~30 mM citrate-NaOH pH 4.7 or pH 5.7 (Hampton Research), 150 mM NaCl by using a MicroCal iTC200 (Malvern Panalytical). […]

[2] = pH 5.0, ligand + (100 or 1000 µM used)
[3] = pH 5.0, ligand ++ (100 or 1000 µM used)
[4] = pH 7.0, ligand + (100 or 1000 µM used)
[5] = pH 7.0, ligand ++ (100 or 1000 µM used)

Row | SMILES | ligand-induced TLR7 dimerization (TLR7) | Band intensity Dimer (TLR7; [2]) | Band intensity Monomer (TLR7; [2]) | Band intensity Dimer (TLR7; [3]) | Band intensity Monomer (TLR7; [3]) | Band intensity Dimer (TLR7; [4]) | Band intensity Monomer (TLR7; [4]) | Band intensity Dimer (TLR7; [5]) | Band intensity Monomer (TLR7; [5]) | TLR2-dependent TNF-α production (TLR1/2) | Mean TNF-α (TLR1/2) [pg/mL] | TNF-α (TLR1/2) | Kd [1] [µM]
1 | CCOc1nc(N)c2nc(-c3cncc(F)c3)n(Cc3ccc(CN4C[C@@H]5C[C@H]4CN5C)cc3)c2n1 [Cpd-6] | increased only in acidic conditions | 8170.97 | 16240 | 8032.26 | 12976 | 10536.9 | 14418 | 14285.1 | 11832.4 | neither Cpd-6 nor Cpd-7 blocked | 2207.35 | 2553.64 pg/mL and 2237.72 pg/mL and 1830.68 pg/mL | 10
2 | CCOc1nc(C)c2nc(-c3cncc(F)c3)n(Cc3ccc(CN4C[C@@H]5C[C@H]4CN5C)cc3)c2n1 [Cpd-7] | increased only in acidic conditions | 8301.55 | 16518.6 | 8600.5 | 15510.2 | 9334.79 | 16326.2 | 12602.5 | 14640.4 | neither Cpd-6 nor Cpd-7 blocked | 2407.5 | 2596.39 pg/mL and 2051.11 pg/mL and 2574.99 pg/mL | 7.4
